For test [1], the target named is novel receptor obtainable from rat forebrain tissue. Nature of the test: [3H]-Compound A radioligand binding assay. As to conditions: competition with [3H]-Compound A (20 nM). The method, then:
WO 92/22293 (SmithKline Beecham) discloses compounds having anti-convulsant activity, including inter alia the compound trans-(+)-6-acetyl-4S-(4-fluorobenzoylamino)-3,4-dihydro-2,2-dimethyl-2H-1-benzopyran-3R-ol (hereinafter referred to as Compound A). […] The affinity of test compounds to the novel receptor site is assessed as follows.
Whole forebrain tissue is obtained from rats. The tissue is first homogenised in buffer (usually 50 mM Tris/HCl, pH 7.4). The homogenised tissue is washed by centrifugation and resuspension in the same buffer, then stored at −70° C. until used.
To carry out the radioligand binding assay, aliquots of tissue prepared as above (usually at a concentration of 1-2 mg protein/ml) are mixed with aliquots of [3H]-Compound A dissolved in buffer. The final concentration of [3H]-Compound A in the mixture is usually 20 nM. The mixture is incubated at room temperature for 1 hour. [3H]-Compound A bound to the tissue is then separated from unbound [3H]-Compound A by filtration through Whatman GF/B glass fibre filters. The filters are then washed rapidly with ice-cold buffer. The amount of radioactivity bound to the tissue trapped on the filters is measured by addition of liquid scintillation cocktail to the filters followed by counting in a liquid scintillation counter. […]

The subject of test [2] is electrically-induced seizures in mice. Nature of the test: Maximal electroshock seizure threshold (MEST) test. As to conditions: 10 mg/kg po, suspension in methyl cellulose, one hour post dosing. Type of test: in vivo. As to the method:
The maximal electroshock seizure threshold (MEST) test in rodents is particularly sensitive for detecting potential anticonvulsant properties^1. In this model, anticonvulsant agents elevate the threshold to electrically-induced seizures whilst proconvulsants lower the seizure threshold.
Mice (naive, male, Charles River, U.K. CD-1 strain, 25-30 g) are randomly assigned to groups of 10-20 and dosed orally or intraperitoneally at a dose volume of 10 ml/kg with various doses of compound (0.3-300 mg/kg) or vehicle. Mice are then subjected at 30 or 60 min post dose to a single electroshock (0.1 sec, 50 Hz, sine wave form) administered via corneal electrodes. The mean current and standard error required to induce a tonic seizure in 50% (CC50) of the mice in a particular treatment group is determined by the ‘up and down’ method of Dixon and Mood (1948)^2. Statistical comparisons between vehicle- and drug-treated groups are made using the method of Litchfield and Wilcoxon (1949)^3.
In control animals the CC50 is usually 14-18 mA. […] If a tonic convulsion does occur, then the current is decreased, and so on until all the animals in the group have been tested.
The percentage increase or decrease in CC50 for each group compared to the control is calculated. […]
(In general: Protection in the maximal electroshock model is a classic sign of anticonvulsant action.)

With `COc1cc(C(C)(C)C)ccc1C(=O)Nc1cccc(C2CCCN2)c1` (racemic) [Example 1, (±)-4-tert-Butyl-2-methoxy-N-(3-pyrrolidin-2-yl-phenyl)-benzamide, monohydroclhloride], the pKi value result in test [1] is recorded as “greater than 7”. For the same compound, in test [2], the “increase in seizure threshold (CC50) compared to control” value amounted to 53%.

Source of the values: US6395759B1, “Substituted benzamide derivatives and pharmaceutical compositions containing them” (SmithKline Beecham p.l.c., priority 1999, dated 2002).
